# Laboratory results reported in ChEMBL document CHEMBL3272154, “Synthesis of 1- and 2-substituted indazoles as anthelmintic agents” (1976).
# Activity calls are given as the source filed them. No cut-off for these calls is given here.
# Legend:
# [1] = tested on: Trichinella spiralis; experiment: Anthelmintic activity against Trichinella spiralis infected in mouse assessed as reduction in nematode level at 25 mg/kg, po and 25 mg/kg, sc administered 8 hrs post infection; format: functional
# [2] = tested on: Trichinella spiralis; experiment: Anthelmintic activity against Trichinella spiralis infected in sheep assessed as reduction in intestinal nematode burden at 15 mg/kg, po after 7 days post dose; format: functional; settings: 168 h
# [3] = tested on: Trichinella spiralis; experiment: Anthelmintic activity against Trichinella spiralis infected in po dosed sheep assessed as reduction in intestinal nematode burden; format: functional, organism-based
# [4] = tested on: Trichinella spiralis; experiment: Anthelmintic activity against Trichinella spiralis infected in sheep assessed as reduction in intestinal nematode burden at 25 mg/kg, po after 7 days post dose; format: functional; settings: 168 h
Structure (SMILES),inhibition in vivo at 25 mg/kg [1] [%],inhibition in vivo at 15 mg/kg [2] [%],Activity [3],inhibition in vivo at 25 mg/kg [4] [%]
CCCCCCN(C)C(=O)n1ncc2ccc([N+](=O)[O-])cc21,41,,,
CCCCCCN(C)C(=O)n1cc2cc(Cl)ccc2n1,40,,,
O=C(c1ccco1)n1ncc2ccccc21,16,0,,
O=C(OCc1ccccc1)n1cc2ccccc2n1,74,0,,
CCCCCCCN(C)C(=O)n1nc2ccccc2n1,,,Active,
O=C(c1cnc2ccccc2n1)n1cc2ccccc2n1,36,,,
O=C(Nc1nc2ccccc2[nH]1)c1ccco1,,,,99
CCCCCCCN(C)C(=O)n1cc2ccccc2n1,45,0,,
COC(=O)n1cc2ccccc2n1,26,,,
CCCCc1ccc2[nH]c(NC(=O)OC)nc2c1 [PARBENDAZOLE],99,,,99
COC(=O)Nc1nc2ccccc2[nH]1 [CARBENDAZIM],0,,,98
O=C(c1ccco1)n1cc2ccccc2n1,58,0,,
COC(=O)n1ncc2ccccc21,23,,,
CCCCCCCN(C)C(=O)Nc1nc2ccccc2[nH]1,14,0,,
